Results reported in patent US20110039762A1, “TARGETED ANTIMICROBIAL MOIETIES” (C3 JIAN, INC., priority 2009, published 2011).
Entries after “also recorded” stand apart in the source; their conditions may differ.

Legend:
[1] = system: M. luteus; assay: Kill or inhibit growth/proliferation; morphology, biofilm and growth disruption (Tables 5, 6); format: cell-based, Micrococcus luteus; design: key: A: Peptide aggregates; B: Less hyphal formation; Clumps; Diffuse clumps and small polyps; F: Diffuse growth; H: Thin; I: Growth inhibition; Microcolony formation; Rippled; Small polyps; Thick; W: Halo formation on top, microlonies on bottom; note: test concentration or dose not given here
[2] = system: MRSA; assay: as above; format: cell-based, Methicillin-resistant Staphylococcus aureus; design: key: A: Peptide aggregates; B: Less hyphal formation; Clumps; Diffuse clumps and small polyps; F: Diffuse growth; H: Thin; I: Growth inhibition; Microcolony formation; Rippled; Small polyps; Thick; W: Halo formation on top, microlonies on bottom; note: test concentration or dose not given here
[3] = system: S. epidermidis; assay: as above; format: cell-based, Staphylococcus epidermidis; design: key: A: Peptide aggregates; B: Less hyphal formation; Clumps; Diffuse clumps and small polyps; F: Diffuse growth; H: Thin; I: Growth inhibition; Microcolony formation; Rippled; Small polyps; Thick; W: Halo formation on top, microlonies on bottom; note: test concentration or dose not given here
[4] = system: S. mutans; assay: as above; format: cell-based, Streptococcus mutans; design: key: A: Peptide aggregates; B: Less hyphal formation; Clumps; Diffuse clumps and small polyps; F: Diffuse growth; H: Thin; I: Growth inhibition; Microcolony formation; Rippled; Small polyps; Thick; W: Halo formation on top, microlonies on bottom; note: test concentration or dose not given here
[5] = system: S. pneumoniae; assay: as above; format: cell-based, Streptococcus pneumoniae; design: key: A: Peptide aggregates; B: Less hyphal formation; Clumps; Diffuse clumps and small polyps; F: Diffuse growth; H: Thin; I: Growth inhibition; Microcolony formation; Rippled; Small polyps; Thick; W: Halo formation on top, microlonies on bottom; note: test concentration or dose not given here
[6] = system: microorganisms (e.g., bacteria, yeasts, fungi); assay: Targeting peptide binding to target microorganisms (Table 3); conditions: preferably 1x PBS; for Target(s) (microorganisms bound by the targeting peptide): peptide binding in aqueous buffers varied by peptide solubility
[7] = system: microorganisms; assay: Peptides having multiple activities (targeting/binding, antimicrobial, growth or phenotype altering)
Description: In certain embodiments, peptides described herein can have multiple activities. Thus for example, a peptide can have both binding/targeting activity and antimicrobial activity. Such peptides can be used, e.g., in a chimeric construct, for any or all of these properties. Thus, for example, a peptide designated “B” in Table 8 can be used as a targeting peptide. If it is also designated G or M it can also be used for antimicrobial activity.

[8] = system: E. faecalis; assay: Kill or inhibit growth/proliferation; morphology, biofilm and growth disruption (Tables 5, 6); format: cell-based, Enterococcus faecalis; design: key: A: Peptide aggregates; B: Less hyphal formation; Clumps; Diffuse clumps and small polyps; F: Diffuse growth; H: Thin; I: Growth inhibition; Microcolony formation; Rippled; Small polyps; Thick; W: Halo formation on top, microlonies on bottom; note: test concentration or dose not given here
[9] = system: C. jejuni; assay: as above; format: cell-based, Campylobacter jejuni; design: key: A: Peptide aggregates; B: Less hyphal formation; Clumps; Diffuse clumps and small polyps; F: Diffuse growth; H: Thin; I: Growth inhibition; Microcolony formation; Rippled; Small polyps; Thick; W: Halo formation on top, microlonies on bottom; note: test concentration or dose not given here
[10] = system: E. coli; assay: as above; format: cell-based, Escherichia coli; design: key: A: Peptide aggregates; B: Less hyphal formation; Clumps; Diffuse clumps and small polyps; F: Diffuse growth; H: Thin; I: Growth inhibition; Microcolony formation; Rippled; Small polyps; Thick; W: Halo formation on top, microlonies on bottom; note: test concentration or dose not given here
[11] = system: P. aeruginosa; assay: as above; format: cell-based, Pseudomonas aeruginosa; design: key: A: Peptide aggregates; B: Less hyphal formation; Clumps; Diffuse clumps and small polyps; F: Diffuse growth; H: Thin; I: Growth inhibition; Microcolony formation; Rippled; Small polyps; Thick; W: Halo formation on top, microlonies on bottom; note: test concentration or dose not given here
[12] = microorganism the targeting peptide binds, binding in aqueous buffers varied by peptide solubility
[13] = microorganism(s) the targeting peptide binds, binding in aqueous buffers depending on peptide solubility

Substance	Organism, effect [2]	Organism, effect [3]	Organism, effect [5]	Activities [7]	Organism, effect [8]	Organism, effect [10]	Organism, effect [11]	other results
PF-051: peptide having multiple activities (chain 1 RFFNFEIKKSTKVDYVFAHVDLSDV; chain 2 RFFNFEIKKSTKVDYVFAHVDLSDV; Peptide with targeting and/or antimicrobial activity)	MRSA (D)	S. epidermidis (D)	S. pneumoniae (D)	G B	–	–	–	Organism, effect [1]: M. luteus (C); Organism, effect [4]: S. mutans (D); Target(s) [6, 12]: S. epidermidis and M. luteus and P. aeruginosa and C. albicans and MRSA and S. pneumoniae and E. faecalis
PF-432: peptide having multiple activities (FNGDSEFFLCIAF; Peptide with targeting and/or antimicrobial activity)	MRSA (M)	S. epidermidis (M)	S. pneumoniae (D)	G B	E. faecalis (D)	E. coli (R)	P. aeruginosa (A)	Organism, effect [9]: C. jejuni (D)
PF-776: peptide having multiple activities (VSILLYLSATIILPNVLRLLVARAIIVRV; Peptide with targeting and/or antimicrobial activity)	–	–	–	G B	–	–	–	Organism, effect (morphology, biofilm and growth disruption) [1]: M. luteus (C); Organism, effect (morphology, biofilm and growth disruption) [2]: MRSA (D); Organism, effect (morphology, biofilm and growth disruption) [3]: S. epidermidis (D); Organism, effect (morphology, biofilm and growth disruption) [4]: S. mutans (D); Organism, effect (morphology, biofilm and growth disruption) [5]: S. pneumoniae (C); Organism, effect (morphology, biofilm and growth disruption) [10]: E. coli (C); Target(s) (microorganisms bound by the targeting peptide) [6]: S. epidermidis and M. luteus and P. mirabilis and C. albicans and MRSA and S. pneumoniae and E. faecalis
PF-535 (NIKTRKRALKIIKQHQRSK; Peptide with targeting and/or antimicrobial activity)	–	–	S. pneumoniae (H)	–	–	–	P. aeruginosa (H)	–
ALCSVIKAIELGIINVHLQ [PF-366]	MRSA (D)	S. epidermidis (R)	S. pneumoniae (C)	G B	E. faecalis (C)	E. coli (C)	P. aeruginosa (A)	Organism, effect [9]: C. jejuni (D)
PF-411: peptide having multiple activities (WVAVAILLNIALQTQLT; Peptide with targeting and/or antimicrobial activity)	MRSA (D)	S. epidermidis (C)	S. pneumoniae (D)	G B	E. faecalis (D)	E. coli (C)	P. aeruginosa (A)	Organism, effect [9]: C. jejuni (D)
LSPRPIIVSRRSRADNNNDWSR [PF-143]	–	–	–	G B	–	–	P. aeruginosa (C)	Target(s) [6, 13]: S. epidermidis and MRSA and C. jeikeium
PF-536 (MEPIPHIMIIANQIGIIIEKA; Peptide with targeting and/or antimicrobial activity)	MRSA (C)	S. epidermidis (C)	S. pneumoniae (M)	–	E. faecalis (C)	E. coli (R)	P. aeruginosa (H)	–
PF-458: peptide having multiple activities (chain 1 ISLIIFIMLFVVALFKCITNYKHQS; chain 2 ISLIIFIMLFVVALFKCITNYKHQS; Peptide with targeting and/or antimicrobial activity)	MRSA (M)	–	S. pneumoniae (M)	G B	–	–	P. aeruginosa (H)	–
PF-020: peptide having multiple activities (chain 1 MKIILLLFLIFGFIVVVTLKSEHQLTLFSI; chain 2 MKIILLLFLIFGFIVVVTLKSEHQLTLFSI; Peptide with targeting and/or antimicrobial activity)	MRSA (C)	S. epidermidis (C)	S. pneumoniae (D)	G B	–	–	–	Organism, effect [1]: M. luteus (C); Organism, effect [4]: S. mutans (F); Target(s) [6, 12]: S. epidermidis and M. luteus and C. albicans and MRSA and S. pneumoniae and E. faecalis
PF-128: peptide having multiple activities (GIKVVAARFEEIQFSENFDSIILA; Peptide with targeting and/or antimicrobial activity)	–	S. epidermidis (D)	–	G B	–	–	P. aeruginosa (C)	Target(s) [6, 13]: M. luteus; also recorded: P. aeruginosa; also recorded: E. faecalis
GNVHPESDFHNLIQFIKTFLYFTIFFKYFL [PF-C290]	–	–	–	G B	–	–	–	Organism, effect (morphology, biofilm and growth disruption) [4]: S. mutans (F); Target(s) (microorganisms bound by the targeting peptide) [6]: A. naeslundii; also recorded: F. nucleatum; also recorded: P. gingivalis; also recorded: S. mutans; also recorded: T. denticola
PF-543: peptide having multiple activities (chain 1 NILFGIIGFVVAMTAAVIVTAISIAK; chain 2 NILFGIIGFVVAMTAAVIVTAISIAK; Peptide with targeting and/or antimicrobial activity)	MRSA (D)	S. epidermidis (D)	S. pneumoniae (D)	G B	–	E. coli (C)	–	Organism, effect [1]: M. luteus (C); Organism, effect [4]: S. mutans (S)
PF-C281: peptide having multiple activities (KKEKLLTAIRLQHRAEIRGYFTIFFLFFRI; Peptide with targeting and/or antimicrobial activity)	–	–	–	G B	–	–	–	Organism, effect (morphology, biofilm and growth disruption) [4]: S. mutans (F); Target(s) (microorganisms bound by the targeting peptide) [6]: A. naeslundii; also recorded: F. nucleatum; also recorded: P. gingivalis; also recorded: S. mutans; also recorded: T. denticola
PF-356: peptide having multiple activities (chain 1 VSIKIGAIVIGMIGLMELLTE; chain 2 VSIKIGAIVIGMIGLMELLTE; Peptide with targeting and/or antimicrobial activity)	MRSA (C)	S. epidermidis (S)	S. pneumoniae (R)	G B	E. faecalis (R)	–	P. aeruginosa (A)	Organism, effect [9]: C. jejuni (D)
PF-454: peptide having multiple activities (chain 1 MSVFVPVTNIFMFIMSPIFNVNLLHFKVYI; chain 2 MSVFVPVTNIFMFIMSPIFNVNLLHFKVYI; Peptide with targeting and/or antimicrobial activity)	MRSA (C)	S. epidermidis (C)	S. pneumoniae (R)	G B	E. faecalis (C)	E. coli (R)	P. aeruginosa (H)	–
PF-C139: peptide having multiple activities (LLASHPERLSLGVFFVYRVLHLLLENT; Peptide with targeting and/or antimicrobial activity)	–	–	–	G B	–	–	–	Organism, effect (morphology, biofilm and growth disruption) [4]: S. mutans (F); Target(s) (microorganisms bound by the targeting peptide) [6]: A. naeslundii; also recorded: F. nucleatum; also recorded: P. gingivalis; also recorded: S. mutans; also recorded: T. denticola
